Test [1] relates to Bacillus subtilis. In words: Antibacterial activity against Bacillus subtilis after 24 hr by disk diffusion test. It counts as functional.
The subject of test [2] is Pseudomonas aeruginosa. Nature of the test: Antibacterial activity against Pseudomonas aeruginosa after 24 hr by disk diffusion test. The test is classed as functional. In general terms: A growth-free zone around the sample is the usual read-out of agar diffusion tests.
Test [3] deals with Aspergillus niger. Nature of the test: Antifungal activity against Aspergillus niger after 48 hr by agar plate method. It counts as functional.
The subject of test [4] is Escherichia coli. Nature of the test: Antibacterial activity against Escherichia coli after 24 hr by disk diffusion test. The test is classed as functional.
For test [5], the system named is Escherichia coli. In words: Antibacterial activity against Escherichia coli after 24 hr by agar plate method. It counts as functional.
Test [6] relates to Staphylococcus aureus. Nature of the test: Antibacterial activity against Staphylococcus aureus after 24 hr by agar plate method. It counts as functional.
Test [7] deals with Pseudomonas aeruginosa. In words: Antibacterial activity against Pseudomonas aeruginosa after 24 hr by agar plate method. The test is classed as functional.
The test system of test [8] is Aspergillus niger. In words: Antifungal activity against Aspergillus niger after 48 hr by disk diffusion test. It counts as functional.
For test [9], the system named is Candida albicans. Nature of the test: Antifungal activity against Candida albicans after 48 hr by agar plate method. It counts as functional.
For test [10], the system named is Bacillus subtilis. Nature of the test: Antibacterial activity against Bacillus subtilis after 24 hr by agar plate method. The test is classed as functional.
Test [11] concerns Staphylococcus aureus. Nature of the test: Antibacterial activity against Staphylococcus aureus after 24 hr by disk diffusion test. The test is classed as functional.
Test [12] relates to Candida albicans. In words: Antifungal activity against Candida albicans after 48 hr by disk diffusion test. The test is classed as functional.
The subject of test [13] is Pseudomonas aeruginosa. Nature of the test: Antibacterial activity against Pseudomonas aeruginosa at 100 ug/disk after 24 hr by disk diffusion test. The following applies: read-out: IZ.
In test [14] the test system is Bacillus subtilis. In words: Antibacterial activity against Bacillus subtilis at 100 ug/disk after 24 hr by disk diffusion test. As to conditions: read-out: IZ.
In test [15] the test system is Escherichia coli. In words: Antibacterial activity against Escherichia coli at 100 ug/disk after 24 hr by disk diffusion test. As to conditions: read-out: IZ.
Test [16] relates to Staphylococcus aureus. In words: Antibacterial activity against Staphylococcus aureus at 100 ug/disc after 24 hr by disk diffusion test. The following applies: read-out: IZ.
Test [17] concerns Candida albicans. Nature of the test: Antifungal activity against Candida albicans at 100 ug/disk after 48 hr by disk diffusion test. It counts as functional. The following applies: read-out: IZ.
The subject of test [18] is Aspergillus niger. In words: Antifungal activity against Aspergillus niger at 100 ug/disk after 48 hr by disk diffusion test. The test is classed as functional. As to conditions: read-out: IZ.

SMILES strings stand for the structures. Values after ≈ are worked out from the molar mass of the structure shown.

Broadly, the MIC is the lowest concentration found to suppress growth.

For the molecule `CN1CCN(c2nc(Nc3ccccc3)nc(Oc3cc(=O)oc4ccccc34)n2)CC1`, the “inhibition zone (IZ)” value in the test with Bacillus subtilis [1] worked out at 20 mm; in the test with Pseudomonas aeruginosa [2] it was 17 mm; in the test with Escherichia coli [4], 16 mm; in the test with Aspergillus niger [8] it was 14 mm; with Staphylococcus aureus [11] it was 16 mm; in the test on Candida albicans [12], 17 mm. For the same molecule, the MIC with Aspergillus niger [3], in the test with Escherichia coli [5], against Staphylococcus aureus [6], in the test on Pseudomonas aeruginosa [7], in the test on Candida albicans [9] and in the test with Bacillus subtilis [10] was 100 µg/mL (≈ 232 µM) throughout.
As to `CCN1CCN(c2nc(Nc3ccccc3)nc(Oc3cc(=O)oc4ccccc34)n2)CC1`, the “inhibition zone (IZ)” value was determined as 20 mm in the test with Bacillus subtilis [1]; 18 mm in the test with Pseudomonas aeruginosa [2]; 15 mm in the test with Escherichia coli [4]; 17 mm in the test with Aspergillus niger [8]; 17 mm in the test on Staphylococcus aureus [11]; 19 mm in the test on Candida albicans [12]. In addition, the MIC against Aspergillus niger [3] was found to be 100 µg/mL (≈ 225 µM); with Escherichia coli [5], 100 µg/mL (≈ 225 µM); with Staphylococcus aureus [6] it was 100 µg/mL (≈ 225 µM); in the test on Pseudomonas aeruginosa [7] it was 100 µg/mL (≈ 225 µM); in the test with Candida albicans [9], 100 µg/mL (≈ 225 µM); in the test with Bacillus subtilis [10] it was 50 µg/mL (≈ 112 µM).
Regarding `O=c1cc(Oc2nc(Nc3ccccc3)nc(N3CCN(c4cccc(Cl)c4)CC3)n2)c2ccccc2o1`, the “inhibition zone (IZ)” value is 21 mm in the test on Bacillus subtilis [1]; 23 mm in the test on Pseudomonas aeruginosa [2]; 22 mm with Escherichia coli [4]; 20 mm in the test with Aspergillus niger [8]; 21 mm with Staphylococcus aureus [11]; 23 mm with Candida albicans [12]. Moreover, the MIC against Aspergillus niger [3] was found to be 50 µg/mL (≈ 94.9 µM); in the test with Escherichia coli [5], 25 µg/mL (≈ 47.4 µM); against Staphylococcus aureus [6], 50 µg/mL (≈ 94.9 µM); with Pseudomonas aeruginosa [7] it was 25 µg/mL (≈ 47.4 µM); against Candida albicans [9] it was 12.5 µg/mL (≈ 23.7 µM); against Bacillus subtilis [10], 25 µg/mL (≈ 47.4 µM).
With `O=c1cc(Oc2nc(Nc3ccccc3)nc(N3CCN(c4cccc(Cl)c4Cl)CC3)n2)c2ccccc2o1`, the “inhibition zone (IZ)” value in the test on Bacillus subtilis [1] was 23 mm; in the test with Pseudomonas aeruginosa [2], 23 mm; with Escherichia coli [4], 21 mm; with Aspergillus niger [8], 20 mm; with Staphylococcus aureus [11] it was 22 mm; in the test on Candida albicans [12], 22 mm. Moreover, the MIC against Aspergillus niger [3] was 12.5 µg/mL (≈ 22.3 µM); in the test on Escherichia coli [5] it was 50 µg/mL (≈ 89.1 µM); against Staphylococcus aureus [6] it was 25 µg/mL (≈ 44.5 µM); against Pseudomonas aeruginosa [7], 12.5 µg/mL (≈ 22.3 µM); in the test with Candida albicans [9] it was 12.5 µg/mL (≈ 22.3 µM); against Bacillus subtilis [10], 12.5 µg/mL (≈ 22.3 µM).
For the molecule `O=c1cc(Oc2nc(Nc3ccccc3)nc(N3CCCCC3)n2)c2ccccc2o1`, the “inhibition zone (IZ)” value in the test with Bacillus subtilis [1] is listed as 20 mm; in the test on Pseudomonas aeruginosa [2], 16 mm; with Escherichia coli [4] it was 22 mm; with Aspergillus niger [8], 21 mm; with Staphylococcus aureus [11], 19 mm; with Candida albicans [12] it was 20 mm. For the same molecule, the MIC against Aspergillus niger [3] turned out to be 12.5 µg/mL (≈ 30.1 µM); against Escherichia coli [5] it was 25 µg/mL (≈ 60.2 µM); against Staphylococcus aureus [6], 100 µg/mL (≈ 241 µM); with Pseudomonas aeruginosa [7], 100 µg/mL (≈ 241 µM); against Candida albicans [9], 100 µg/mL (≈ 241 µM); against Bacillus subtilis [10], 50 µg/mL (≈ 120 µM).
`O=c1cc(Oc2nc(Nc3ccccc3)nc(N3CCOCC3)n2)c2ccccc2o1`: the “inhibition zone (IZ)” value is given as 16 mm in the test with Bacillus subtilis [1]; 17 mm in the test on Pseudomonas aeruginosa [2]; 22 mm with Escherichia coli [4]; 21 mm with Aspergillus niger [8]; 19 mm with Staphylococcus aureus [11]; 19 mm with Candida albicans [12]. In addition, the MIC in the test with Aspergillus niger [3] was determined as 6.25 µg/mL (≈ 15 µM); against Escherichia coli [5], 25 µg/mL (≈ 59.9 µM); in the test on Staphylococcus aureus [6], 100 µg/mL (≈ 240 µM); with Pseudomonas aeruginosa [7] it was 100 µg/mL (≈ 240 µM); against Candida albicans [9] it was 100 µg/mL (≈ 240 µM); in the test with Bacillus subtilis [10], 100 µg/mL (≈ 240 µM).
Turning to `O=C(O)c1cn(C2CC2)c2cc(N3CCNCC3)c(F)cc2c1=O` [CIPROFLOXACIN], the zone of inhibition at 100 µg/disc was 33 mm with Pseudomonas aeruginosa [13], 29 mm with Bacillus subtilis [14], 32 mm in the test with Escherichia coli [15] and 29 mm in the test on Staphylococcus aureus [16]. The MIC with Escherichia coli [5], in the test with Staphylococcus aureus [6], against Pseudomonas aeruginosa [7] and in the test on Bacillus subtilis [10] was 3.12 µg/mL (≈ 9.43 µM) each time.
In the case of `CC(=O)N1CCN(c2ccc(OCC3COC(Cn4ccnc4)(c4ccc(Cl)cc4Cl)O3)cc2)CC1` (centres undefined) [KETOCONAZOLE], the values for the MIC against Aspergillus niger [3] and in the test on Candida albicans [9] were 6.25 µg/mL (≈ 11.8 µM) and 3.12 µg/mL (≈ 5.88 µM), respectively. Further, the zone of inhibition at 100 µg/disc in the test with Candida albicans [17] came to 33 mm; with Aspergillus niger [18] it was 30 mm.

The record behind these values is ChEMBL document CHEMBL3045112, “In vitro antimicrobial assessment of coumarin-based s-triazinyl piperazines” (2012).
